Literature values in patent US20030077302A1, “Diclofenamide suspension gel” (priority 2000, published 2003).

Columns and labels:
[1] = rabbits, topical suspensions
[2] = tested on: intraocular pressure; conditions: rabbits

Compound | aqueous humor values compared with solutions of sodium diclofenamide [1] | reduction of the intraocular pressure ([2]; topical aqueous solution) | reduction of the intraocular pressure compared with suspensions of the free acid of diclofenamide ([2]; topical solutions) | tolerability, single applications (rabbit, in vivo) | side effects, repeated use (rabbits, solutions, repeated use)
NS(=O)(=O)c1cc(Cl)c(Cl)c(S(N)(=O)=O)c1 [diclofenamide, 4,5-dichlorbenzene-1,3-disulfonamide] | clearly at a lower level |  |  |  | 
NS(=O)(=O)c1cc(Cl)c(Cl)c(S(N)(=O)=O)c1 [diclofenamide sodium] |  | clear and long lasting reduction of the intraocular pressure | clearly stronger and longer reduction of the intraocular pressure | well tolerated | severe undesirable side effects
